5 molecules from patent US11726083B2, “Method for testing drug response of cardiomyocytes” (Myoridge Co. Ltd., priority 2017, dated 2023) can be followed below.

The test system of this experiment is cardiomyocytes prepared by inducing differentiation of a human iPS cell line (253G1). The settings on record: for rate of change in heart rate / rate of change in Ca^2+ duration: 100% = no change.
Where [1] appears, read: sample 2A: 100 nM, culture medium not containing hemoglobin, liquid-surface distance 6.67 mm.
Setting [2] is: sample 2C: 100 nM, 0.5 mass % hemoglobin, liquid-surface distance 6.67 mm.
Where [3] appears, read: sample 2D: 1000 nM, 0.5 mass % hemoglobin, liquid-surface distance 6.67 mm.
Setting [4] is: sample 2E: 100 nM, 1.0 mass % hemoglobin, liquid-surface distance 6.67 mm.
Setting [5] is: sample 2F: 1000 nM, 1.0 mass % hemoglobin, liquid-surface distance 6.67 mm.
[6] abbreviates: sample 3A: 100 nM, liquid-surface distance 8.33 mm.
[7] abbreviates: sample 3C: 100 nM, liquid-surface distance 6.67 mm.
[8] abbreviates: sample 3E: 100 nM, liquid-surface distance 5.00 mm.
Setting [9] is: sample 3G: 100 nM, liquid-surface distance 3.33 mm.
Where [10] appears, read: sample 3H: 1000 nM, liquid-surface distance 3.33 mm.
Where [11] appears, read: sample 3I: 100 nM, liquid-surface distance 1.67 mm.
Where [12] appears, read: sample 3J: 1000 nM, liquid-surface distance 1.67 mm.
The mark [13] stands for this setting: sample 4A: 100 nM, control container (polystyrene), liquid-surface distance 6.67 mm.
Where [14] appears, read: sample 4C: 100 nM, oxygen-permeable container (VECELL 96-well plate), liquid-surface distance 6.67 mm.
Setting [15] is: sample 5M: 300 μM, no hemoglobin, liquid-surface distance 6.67 mm.
Setting [16] is: sample 5N: 300 μM, 2.0% by mass of hemoglobin, liquid-surface distance 1.0 mm.
Setting [17] is: sample 5P: 500 μM, 2.0% by mass of hemoglobin, liquid-surface distance 1.0 mm.

Where two headings read alike, the source gives them in different places.

As to `Cc1cccc(CCN2CCC(C(=O)c3ccc(NS(C)(=O)=O)cc3)CC2)n1` [E-4031], the “pulsation (pulsation arrest)” value runs as follows: (sample 5E: 0.1 μM, no hemoglobin, liquid-surface distance 6.67 mm) “did not stop”; (sample 5F: 0.1 μM, 0.5% by mass of hemoglobin, liquid-surface distance 1.67 mm) “did not stop”; (sample 5G: 0.3 μM, no hemoglobin, liquid-surface distance 6.67 mm) “stopped at a high frequency”; (sample 5H: 0.3 μM, 0.5% by mass of hemoglobin, liquid-surface distance 1.67 mm) “did not stop”.
As for `CC(C)NCC(O)c1ccc(O)c(O)c1` (stereo not shown) [isoproterenol], the “expected drug response (tachycardic response)” value by setting is: under setting [1], “detected”; under setting [6], “detected”; under setting [13], “detected”. Moreover, the “pulsation (pulsation arrest)” value is given as “did not stop” under setting [1]; “stopped at a high frequency” (sample 2B: 1000 nM, culture medium not containing hemoglobin, liquid-surface distance 6.67 mm); “did not stop” under setting [2]; “did not stop at all” under setting [3]; “did not stop” under setting [4]; “did not stop at all” under setting [5]. Besides, the “pulsation (pulsation arrest)” value under setting [6] was “did not stop”; the “pulsation (pulsation arrest)” value (sample 3B: 1000 nM, liquid-surface distance 8.33 mm) is listed as “stopped at a high frequency”; the “pulsation (pulsation arrest)” value under setting [7] is on record as “did not stop”; the “pulsation (pulsation arrest)” value (sample 3D: 1000 nM, liquid-surface distance 6.67 mm) was “stopped at a high frequency”; the “pulsation (pulsation arrest)” value under setting [8] was “did not stop”; the “pulsation (pulsation arrest)” value under setting [9] is recorded as “did not stop”. Besides, the “pulsation (pulsation arrest)” value is recorded as “hardly stopped” under setting [10]; “did not stop” under setting [11]; “did not stop at all” under setting [12]; “did not stop” under setting [13]; “stopped at a high frequency” (sample 4B: 1000 nM, control container (polystyrene), liquid-surface distance 6.67 mm); “did not stop” under setting [14]. For the same molecule, under “sample 4D: 1000 nM, oxygen-permeable container (VECELL 96-well plate), liquid-surface distance 6.67 mm”, the “pulsation (pulsation arrest)” value is “stopped only at a low frequency”. For the same molecule, the expected drug response result is reported as “detected” under setting [2]; “detected” under setting [3]; “detected” under setting [4]; “detected” under setting [5]; “detected” under setting [7]; “detected” under setting [8]. For the same molecule, the expected drug response entry is “detected” under setting [9]; “detected” under setting [10]; “detected” under setting [11]; “detected” under setting [12]; “detected” under setting [14]. Besides, the “frequency of the occurrence of the pulsation arrest” value (sample 3F: 1000 nM, liquid-surface distance 5.00 mm) is “about 50%”.
With `Cc1[nH]c(=O)c(C#N)cc1-c1ccncc1` [milrinone], under setting [15], the “expected drug response (tachycardic response)” value is “not detected”, the “pulsation (pulsation arrest)” value is “did not stop” and the “rate of change in heart rate” value was 79%. Further, under setting [16], the expected drug response entry was “detected”, the “pulsation (pulsation arrest)” value was “did not stop” and the “rate of change in heart rate” value is recorded as 118%. In addition, the “pulsation (pulsation arrest)” value (sample 5O: 500 μM, no hemoglobin, liquid-surface distance 6.67 mm) is given as “stopped at a high frequency”. Further, under setting [17], the “expected drug response (tachycardic response)” value is reported as “detected”, the “pulsation (pulsation arrest)” value is recorded as “did not stop” and the “rate of change in heart rate” value came to 154%.
On to `CC(C)(C)c1ccc(C(O)CCCN2CCC(C(O)(c3ccccc3)c3ccccc3)CC2)cc1` (stereo not shown) [terfenadine], for which the “pulsation (pulsation arrest)” value was “did not stop” (sample 5I: 0.1 μM, no hemoglobin, liquid-surface distance 6.67 mm); “did not stop” (sample 5J: 0.1 μM, 0.5% by mass of hemoglobin, liquid-surface distance 1.67 mm); “stopped at a high frequency” (sample 5K: 0.7 μM, no hemoglobin, liquid-surface distance 6.67 mm); “did not stop” (sample 5L: 0.7 μM, 0.5% by mass of hemoglobin, liquid-surface distance 1.67 mm). Further, the “rate of change in Ca^2+ duration” value is reported as “about 135%” (sample 6A: 0.3 μM, 0.5% by mass of hemoglobin, liquid-surface distance 1.67 mm) and “about 170%” (sample 6B: 0.5 μM, 0.5% by mass of hemoglobin, liquid-surface distance 1.67 mm).
As to “hemoglobin: bovine hemoglobin (Nacalai tesque 17553-92), oxygen carrier added to the culture medium”, under “0.5 or 1.0 mass % hemoglobin added to the culture medium, isoproterenol 100/1000 nM, liquid-surface distance 6.67 mm (FIG. 3)”, the “occurrence of the pulsation arrest of the cardiomyocytes during the drug response testing” value is “suppressed”.
